From US11377496B2, “Targeting agent antibody conjugates and uses thereof” (The Scripps Research Institute, priority 2013, dated 2022)
Values joined by “and” are separate entries in the source; they are usually repeats but may differ in a detail not shown here. Equal values may be shown once. Read-outs that look alike come from different tables or passages of the source. Where a SMILES comes first, the peptide text is derived from it.

Legend:
[1] = target: mPSMA (Mus musculus, UniProt O35409); settings: cited from earlier work
mPSMA, sequence (O35409 whole entry): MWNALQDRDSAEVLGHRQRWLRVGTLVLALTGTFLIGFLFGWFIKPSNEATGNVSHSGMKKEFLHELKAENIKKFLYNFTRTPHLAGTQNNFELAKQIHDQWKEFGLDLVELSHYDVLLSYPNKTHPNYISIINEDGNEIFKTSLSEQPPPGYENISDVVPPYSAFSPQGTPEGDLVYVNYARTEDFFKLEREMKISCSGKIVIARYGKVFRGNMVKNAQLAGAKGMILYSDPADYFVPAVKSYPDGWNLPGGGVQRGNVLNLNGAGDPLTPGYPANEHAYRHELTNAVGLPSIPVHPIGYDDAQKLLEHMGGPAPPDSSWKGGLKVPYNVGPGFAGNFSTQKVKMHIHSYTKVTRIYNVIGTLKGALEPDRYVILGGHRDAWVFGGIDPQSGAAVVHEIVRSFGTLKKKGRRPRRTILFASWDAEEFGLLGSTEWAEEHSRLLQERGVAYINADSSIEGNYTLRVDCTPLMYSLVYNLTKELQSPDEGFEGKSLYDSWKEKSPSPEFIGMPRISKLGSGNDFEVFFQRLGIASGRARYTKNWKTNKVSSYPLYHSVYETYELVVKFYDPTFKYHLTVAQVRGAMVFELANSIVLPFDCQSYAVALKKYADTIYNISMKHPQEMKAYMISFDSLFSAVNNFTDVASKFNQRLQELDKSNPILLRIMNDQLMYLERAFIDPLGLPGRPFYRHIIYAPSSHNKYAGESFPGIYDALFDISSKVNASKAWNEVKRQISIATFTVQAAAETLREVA

[2] = system: cynoPSMA; settings: previous reports; cited from earlier work
[3] = target: T1, rhPSMA (Homo sapiens, UniProt Q04609); experiment: PSMA inhibition assay; format: biochemical; settings: for RFU: KM measurement; for Relative Fluorescence Units: glutamic acid readout, Amplex Red
T1 construct: purchased R&D research
T1 sequence (Q04609 whole entry): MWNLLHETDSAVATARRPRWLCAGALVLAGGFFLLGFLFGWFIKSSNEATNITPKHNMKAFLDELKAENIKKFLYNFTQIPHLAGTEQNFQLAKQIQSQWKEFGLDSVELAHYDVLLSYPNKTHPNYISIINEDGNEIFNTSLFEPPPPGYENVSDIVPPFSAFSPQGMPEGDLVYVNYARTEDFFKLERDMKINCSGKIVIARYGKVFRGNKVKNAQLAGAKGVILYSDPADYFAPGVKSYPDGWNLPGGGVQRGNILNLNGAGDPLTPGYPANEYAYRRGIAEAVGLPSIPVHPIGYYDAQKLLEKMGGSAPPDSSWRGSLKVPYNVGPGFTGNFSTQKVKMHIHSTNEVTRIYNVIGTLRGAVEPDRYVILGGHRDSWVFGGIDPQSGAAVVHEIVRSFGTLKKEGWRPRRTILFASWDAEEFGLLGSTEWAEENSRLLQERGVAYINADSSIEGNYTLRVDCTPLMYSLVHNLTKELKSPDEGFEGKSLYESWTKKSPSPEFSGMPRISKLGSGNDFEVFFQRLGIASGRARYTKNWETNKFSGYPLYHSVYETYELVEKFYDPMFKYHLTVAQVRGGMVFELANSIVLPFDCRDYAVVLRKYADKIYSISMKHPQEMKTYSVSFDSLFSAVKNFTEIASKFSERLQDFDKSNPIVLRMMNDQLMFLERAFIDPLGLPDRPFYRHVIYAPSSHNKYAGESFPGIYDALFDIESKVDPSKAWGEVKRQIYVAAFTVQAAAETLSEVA
Protocol: A 10 mM solution of N-acetyl-aspartyl-glutamate (NAAG) in 40 mM NaOH was diluted to 40 μM in Reaction Buffer (0.1 M Tris-HCl, pH=7.5), and the solution was added to a 384 well plate (10 μL per well). For KM measurements and KM negative controls (absence of PSMA), the NAAG solution was serially diluted 2-fold to obtain final NAAG concentrations ranging […]. […] To initiate reactions, 10 μL of rhPSMA ([…] in Reaction Buffer, R&D research) was added to each well. Reaction Buffer (10 μL) was added to the KM control series. The plate was incubated at 37° C. for 30 min, and then heated to 95° C. for 3 min. Levels of glutamic acid were quantified using Amplex® Red Glutamic Acid/Glutamate Oxidase Assay Kit (Invitrogen). Fluorescence intensities were measured using a SpectraMax Gemini EM microplate reader (GMI) with excitation and emission filters of 545 and 590 nm, respectively. Ki values were calculated using the Cheng-Prusoff equation from IC50 and KM values and these values were calculated using GraphPad Prism software. […] All reported data represent the mean of triplicate experiments.

[4] = system: C4-2 (PSMA+) cells; experiment: In vitro cytotoxicity assays, C4-2 cells with PBMCs, 24 and 48 hours (Example 5); format: cell-based, human
Protocol: Peripheral blood mononuclear cells (PBMCs) were purified from fresh healthy human donor blood by conventional Ficoll-Hypaque gradient centrifugation. Purified PBMCs were washed and incubated in flasks in RPMI media with 10% FBS for 1 hours to remove any adherent cells. C4-2 (PSMA+) cells (target cells) were dissociated with 0.05% tryspin/EDTA solution (HyClone) and washed with RPMI with 10% FBS. 1×10^4 target cells were mixed with PBMCs at 1:10 ratio in […], and incubated with different concentrations of conjugated and unconjugated Fabs ([…]) for 24 and 48 hours at 37° C. Cytotoxicity of each well was measured for LDH (lactate dehydrogenase) levels in supernatant using Cytotox-96 non-radioactive cytotoxicity assay kit (Promega). Lysis solution ([…], provided in the same kit) was added to wells with only target cells to get the maximum killing, and spontaneous killing was measured from wells with effector and target cells treated with vehicle ([…]). The absorbance at 490 nm was recorded using SpectraMax 250 plate reader (Molecular Devices Corp.). Percent cytotoxicity was calculated by: % Cytotoxicity=(Absorbanceexpt−Absorbancespontaneous average)/(Absorbancemax killing average−Absorbancespontaneous average)×100

[5] = system: C4-2 cells; experiment: Prophylactic mouse xenograft model, C4-2 cells mixed with hPBMCs; format: in vivo, NOD/SCID mice; settings: 2 mg/kg IV daily for 10 days from Day 4; monitored 6 weeks
Protocol: FIG. 12 depicts in vivo efficacy studies of P-targeting agent antibody conjugate. In the prophylactic model, 1×10^6 C4-2 cells were mixed with 2×10^6 PBMCs (1:2 ratio) in Matrigel and injected SC into the right shoulder of male NOD-SCID mice. P-targeting agent antibody conjugate, unconjugated Fab, or PBS (n=6) were administered at 2 mg/kg everyday for 10 days by IV starting on Day 4. Tumors were monitored by external caliper measurements for regular intervals for 6 weeks.
We next established a mouse xenograft model to evaluate the in vivo efficacy of P-targeting agent antibody conjugate. Immunodeficient NOD/SCID mice were subcutaneously injected with a mixture of 1×10^6 C4-2 cells and 2×10^6 hPBMCs in matrigel (BD Bioscience). After 4 days, treatment was initiated by injecting 2 mg/kg of drug via the tail vein and continued for 10 days (n=6). In a control group, mice were injected with an unconjugated mixture of P-Phthal (3) and UCHT1 wild-type Fab, and another group of mice was injected with vehicle alone (n=6). Tumor growth was monitored by external caliper measurement. […] After confirming the prophylactic efficacy of P-targeting agent antibody conjugate, we carried a xenograft model in which we delayed treatment until we observed the formation of a palpable tumor. […]

[6] = target: CD3 (Macaca fascicularis, UniProt Q95LI5); experiment: Cyno cross-reactivity of anti-CD3 antibody; format: binding, cynomolgus macaque
CD3, sequence (Q95LI5 22-198): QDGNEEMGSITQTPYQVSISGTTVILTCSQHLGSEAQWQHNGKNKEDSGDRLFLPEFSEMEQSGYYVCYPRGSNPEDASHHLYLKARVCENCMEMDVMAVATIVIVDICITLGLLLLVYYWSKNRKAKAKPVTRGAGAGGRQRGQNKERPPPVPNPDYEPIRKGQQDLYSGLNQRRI
CD3, sequence (Q95LI8 22-171 partner): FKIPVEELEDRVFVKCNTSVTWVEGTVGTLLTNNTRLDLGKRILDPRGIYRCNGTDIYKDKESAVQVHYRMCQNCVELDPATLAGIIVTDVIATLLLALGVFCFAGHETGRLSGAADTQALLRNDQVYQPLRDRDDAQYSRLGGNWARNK
CD3, sequence (Q95LI7 23-181 partner): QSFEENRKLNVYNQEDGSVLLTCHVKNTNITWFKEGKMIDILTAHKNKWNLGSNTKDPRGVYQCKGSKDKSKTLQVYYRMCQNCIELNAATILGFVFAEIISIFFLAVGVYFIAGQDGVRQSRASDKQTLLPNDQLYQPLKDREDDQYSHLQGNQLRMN

[7] = Pharmacokinetics in rats, intravenous, sandwich-ELISA; format: in vivo, Sprague Dawley rats; settings: rat, 0.5 mg/kg
Protocol: We first evaluated the pharmacokinetics of the P-targeting agent antibody conjugate. Male Sprague Dawley rats (Charles River) were injected intravenously at time zero at 1 and 5 mg/kg for P-targeting agent antibody conjugate or 0.5 mg/kg for the unconjugated UCHT1 Fab. Blood was collected at regular intervals to 32 hours and processed to measure drug concentrations using a sandwich-ELISA. […] Also, the small size of P-targeting agent antibody conjugate may be advantageous for penetrating solid tumors.

[8] = average of three trials, read-out: Average Ki
[9] = enzyme-based inhibition assay, read-out: average Ki

Row | Compound | IC50 ([3]; Trials 1-3) | Ki [3, 8] | Relative Fluorescence Units ([3]; inhibitor 0.0000256 μM) | Relative Fluorescence Units ([3]; inhibitor 0.000128 μM) | Relative Fluorescence Units ([3]; inhibitor 0.00064 μM) | Relative Fluorescence Units ([3]; inhibitor 0.0032 μM) | Relative Fluorescence Units ([3]; inhibitor 0.016 μM) | Relative Fluorescence Units ([3]; inhibitor 0.08 μM) | Relative Fluorescence Units ([3]; inhibitor 0.4 μM) | Relative Fluorescence Units ([3]; inhibitor 2 μM) | Relative Fluorescence Units ([3]; inhibitor 10 μM) | Relative Fluorescence Units ([3]; inhibitor 50 μM) | Ki [3, 9] | other results
1 | O=C(O)CCC(NC(=O)NC(CCC(=O)O)C(=O)O)C(=O)O (stereo not drawn) [DUPA, 2-[3-(1,3-dicarboxypropy)ureidol]pentanedioic acid] | – | – | – | – | – | – | – | – | – | – | – | – | – | binding to mPSMA (in words) [1]: strongly binds; inhibition of glutamate carboxy peptidase activity of cynoPSMA (in words) [2]: efficiently inhibited
2 | CC(=O)N[C@@H](CC(=O)O)C(=O)N[C@@H](CCC(=O)O)C(=O)O [NAAG, N-acetyl-aspartyl-glutamate, reference compound] (Ac-Asp-Glu-OH) | – | – | – | – | – | – | – | – | – | – | – | – | – | RFU ([3]; NAAG 0.15625 μM): 403; RFU ([3]; NAAG 0.3125 μM): 400.6455; RFU ([3]; NAAG 0.625 μM): 422.2; RFU ([3]; NAAG 1.25 μM): 434.8145; RFU ([3]; NAAG 2.5 μM): 447; RFU ([3]; NAAG 5 μM): 480.622; RFU ([3]; NAAG 10 μM): 549.6; RFU ([3]; NAAG 20 μM): 653.474; Km ([3]; substrate NAAG): 0.288 µM
3 | NOCC(=O)NCCOCCOCCNc1cc(NCCOCCOCCNC(=O)CCCCCCCNC(=O)CCC(NC(=O)NC(CCC(=O)O)C(=O)O)C(=O)O)c([N+](=O)[O-])cc1[N+](=O)[O-] (stereo not drawn) [P-DNP] | 7.28 nM and 4.46 nM and 4.58 nM | 0.0482 nM | 1650.519 | 1558 | 1413.9875 | 1123.0625 | 896.8 | 704.2 | 622.7 | 586.843 | 581.8 | 525.6755 | – | –
4 | NOCC(=O)NCCOCCOCCNC(=O)c1ccc(C(=O)NCCOCCOCCNC(=O)CCCCCCCNC(=O)CCC(NC(=O)NC(CCC(=O)O)C(=O)O)C(=O)O)cc1 (stereo not drawn) [P-Phthal] | 208 nM and 397 nM and 223 nM | 1.98 nM | 1609 | 1592.5445 | 1633.913 | 1542.606 | 1387.603 | 1274 | 1021 | 798.9 | 688.1815 | 581.035 | 2 nM | –
5 | NOCC(=O)NCCOCCOCCOCCNC(=O)c1ccc(C(=O)NCCCCCCc2cn(CCCC[C@H](NC(=O)N[C@@H](CCC(=O)O)C(=O)O)C(=O)O)nn2)cc1 [P-TriA, (S)-2-(3-((S)-5-(4-(6-(4-(1-(aminooxy)-2-oxo-6,9,12-trioxa-3-azatetradecan-14-ylcarbamoyl)benzamido)hexyl)-1H-1,2,3-triazol-1-yl)-1-carboxypentyl)ureido)pentanedioic acid] | – | 0.00478 nM | 1619 | 1499.6145 | 1259 | 950.487 | 817.1 | 664.949 | 586.721 | 562.9 | 599.969 | 559.8 | 0.0048 nM | Ki ([3]; Trials 1-3, Cheng-Prusoff equation from IC50 and KM, read-out: Ki): 0.00613 nM and 0.0023 nM and 0.00591 nM; enhanced affinity ([3]; compared to P-Phthal): more than 400 fold
6 | wt-UCHT1 | – | – | – | – | – | – | – | – | – | – | – | – | – | % Cytotoxicity ([4]; 24 h, 0.0512 pM): −0.1753%; % Cytotoxicity ([4]; 24 h, 0.256 pM): −0.8764%; % Cytotoxicity ([4]; 24 h, 1.28 pM): −0.9115%; % Cytotoxicity ([4]; 24 h, 6.4 pM): −0.4733%; % Cytotoxicity ([4]; 24 h, 32 pM): −0.7537%; % Cytotoxicity ([4]; 24 h, 160 pM): −0.4032%; % Cytotoxicity ([4]; 24 h, 800 pM): 1.192%; % Cytotoxicity ([4]; 24 h, 4000 pM): 1.858%; % Cytotoxicity ([4]; 48 h, 0.01024 pM): −0.609%; % Cytotoxicity ([4]; 48 h, 0.0512 pM): −1.023%; % Cytotoxicity ([4]; 48 h, 0.256 pM): −0.5196%; % Cytotoxicity ([4]; 48 h, 1.28 pM): −0.0812%; % Cytotoxicity ([4]; 48 h, 6.4 pM): −0.4872%; % Cytotoxicity ([4]; 48 h, 32 pM): −1.104%; % Cytotoxicity ([4]; 48 h, 160 pM): −0.9419%; % Cytotoxicity ([4]; 48 h, 800 pM): 4.872%; tumor growth (in words) [5]: developed rapid tumors; cyno cross-reactivity (in words) [6]: not sufficiently cyno cross-reactive; circulating half-life [7]: ~1 h
